{
  "source": "patent US12486255B2",
  "about": "“Modulators of RAS GTPase” (Tosk, Inc., priority 2018, dated 2025)",
  "key": {"Capan-1 cells": {"tested_on": "Capan-1 cells", "experiment": "Cytotoxicity assay, CellTiter-Glo 2.0, Capan-1 cells", "format": "cell-based", "details": "Capan 1, human pancreatic cancer cell line expressing kRAS G12V; 48 hours", "procedure": "FIG. 5, panels A-B, illustrates the cytotoxicity of Structure 2 and Structure 3 on Capan-1 cells. The cytotoxicity of compounds of interest were tested against the human pancreatic cancer cell line Capan-1 as described in the experimental section. Capan-1 cells express a mutant G12V kRAS. Compounds were incubated with cells for 48 hours and the assay was developed using Cell Titer Glo 2.0. IC50 vales were determined using GraphPad Prism 4.\nCompounds were assayed for inhibition of cell proliferation and killing cancer cells. Cytotoxicity assays were conducted according to the following general procedure. SW480, SW48, SW900, SW620 were all maintained in Leibowitz L15 media supplemented with 10% fetal bovine serum and 1% PenStrep and grown in a 37° C. incubator without supplemental CO2. Capan-1 cells were maintained in Iscove's Modified Dulbecco's Medium (ATCC 30-2005) containing 20% fetal bovine serum and 1% PenStrep and grown in a 37° C. incubator containing 5% CO2.\nFor dose-response assays, SW480 cells were plated into 96 well plates (1 million/plate, ˜10,000/well, 250 μL media/well). Cells were allowed to settle and adhere to plate bottom overnight Compounds were placed in 500 μL media and mixed. Then 250 μL compounds+media was placed in an intermediate plate in row A. Rows B through H were filled with 125 μL media. […] Luminescence was read with FLx800 (BioTek Instruments)."}, "[1]": {"tested_on": "cardiomyocyte cell line H9C2", "experiment": "Cytotoxicity assay, H9C2 cells", "format": "cell-based", "details": "rat cardiomyocyte cell line H9C2"}, "[2]": {"experiment": "Pharmacokinetic study in mice", "format": "in vivo", "details": "ip, 3 mg/kg, CD-1 mice, 3 mg/kg", "procedure": "Pharmacokinetic studies were carried out using 10 weeks old CD-1 mice. Structure 2 and Structure 3 were injected ip, 3 mg/kg and 10 mg/kg, respectively, at 8 time points (0, 0.25, 0.5, 1, 2, 4, 8 and 24 hours post-dose). Blood was collected from 3 animals/time point and concentrations of Structure 2 in plasma determined using LC/MS."}, "[3]": {"experiment": "Multi-day safety study in mice", "format": "in vivo", "details": "female CD1 mice, 2 mg/kg ip daily for 6 days", "procedure": "The multi-day safety study used female, 10 week old, CD1 mice (4/treatment group) dosed with DMSO. Mice were administered 2 mg/kg of Structure 2 or 10 mg/kg Structure 3, ip, daily for 6 days and evaluated for changes clinical chemistry values, hematology values and animal weight as well as signs of health and grooming habits.\nHeparinized blood samples were obtained by retro-orbital puncture on Day 6, 12 hours after the last dose of Structure 2. The plasma harvested from the blood was analyzed for standard clinical chemistry parameters (ALB. ALP, ALT, AMY, TBIL, BUN, CA, PHOS, CRE GLU, NA, K, TP & GLOB) and hematology (WBC, LYM, MON, GRA, RBC, HGB, HCT, MCV, MCH, MCHC, RDWc, PLT, PCT, MPV, PDWc) analytes (see definitions herein). Animal weight changes were also monitored. Values for all analytes were analyzed by one way ANOVA plus post-hoc Bonferroni using SPSS (IBM, Armonk, NY)."}},
  "data": [
    {"smiles": "Cc1nc(-c2ccc(CNC(=O)c3cc(CC(C)C)nn3C)cc2)no1", "note": "[Structure 2, 3-isobutyl-1-methyl-N-(4-(5-methyl-1,2,4-oxadiazol-3-yl)benzyl)-1H-pyrazole-5-carboxamide]", "values": [
      {"measurement": "IC50", "setting": "Capan-1 cells", "result": 1300, "unit": "nM"},
      {"measurement": "not cytotoxic at concentrations up to", "setting": "[1]", "result": "> 40", "unit": "µM"},
      {"measurement": "Vd/F", "setting": "[2]; CD-1, mouse, plasma, plasma, read-out: Vz/F", "result": 0.532, "unit": "L/kg"},
      {"measurement": "mean resident times (MRT)", "setting": "[2]", "result": "approximately one to two"},
      {"measurement": "AUCINF", "setting": "[2]; plasma", "result": "10.92 (Microgram * Hour)/mL"},
      {"measurement": "AUC_%Extrap", "setting": "[2]; plasma", "result": 1.92, "unit": "%"},
      {"measurement": "AUClast", "setting": "[2]; plasma", "result": "10.71 (Microgram * Hour)/mL"},
      {"measurement": "CI/F", "setting": "[2]; plasma", "result": 4.58, "unit": "mL/min/kg"},
      {"measurement": "Concentrationmax", "setting": "[2]; plasma", "result": 5.74, "unit": "Microgram/mL"},
      {"measurement": "Lambda_z", "setting": "[2]; plasma", "result": 0.53, "unit": "h⁻¹"},
      {"measurement": "MRTINF", "setting": "[2]; plasma", "result": 2.15, "unit": "h"},
      {"measurement": "MRTlast", "setting": "[2]; plasma", "result": 2.00, "unit": "h"},
      {"measurement": "Timelast", "setting": "[2]; plasma", "result": 8.00, "unit": "h"},
      {"measurement": "concentration at 8 Hour", "setting": "[2]; mouse, plasma, read-out: Concentrationlast", "result": 110, "unit": "ng/mL"},
      {"measurement": "body weight or grooming habits versus dosing vehicle treated animals", "setting": "[3]", "result": "no statistically significant difference"},
      {"measurement": "clinical chemistry changes versus dosing vehicle treated animals", "setting": "[3]", "result": "no significant clinical chemistry changes"},
      {"measurement": "ALB", "setting": "[3]; Day 6", "result": "3.88 ± 0.30", "unit": "g/dL"},
      {"measurement": "ALP", "setting": "[3]; Day 6", "result": "66.50 ± 8.80", "unit": "U/L"},
      {"measurement": "ALT", "setting": "[3]; Day 6", "result": "59.00 ± 32.50", "unit": "U/L"},
      {"measurement": "AMY", "setting": "[3]; Day 6", "result": "871.50 ± 74.70", "unit": "U/L"},
      {"measurement": "BUN", "setting": "[3]; Day 6", "result": "18.25 ± 4.10", "unit": "mg/dL"},
      {"measurement": "CRE", "setting": "[3]; Day 6", "result": "0.34 ± 0.10", "unit": "mg/dL"},
      {"measurement": "Ca^++", "setting": "[3]; Day 6", "result": "9.43 ± 0.40", "unit": "mg/dL"},
      {"measurement": "GLOB", "setting": "[3]; Day 6", "result": "1.23 ± 0.10", "unit": "g/dL"},
      {"measurement": "GLU", "setting": "[3]; Day 6", "result": "234.25 ± 31.70", "unit": "mg/dL"},
      {"measurement": "GRA", "setting": "[3]; Day 6", "result": "1.23 ± 0.20 10^9/l"},
      {"measurement": "GRA (%)", "setting": "[3]; Day 6", "result": "19.03 ± 3.70", "unit": "%"},
      {"measurement": "HCT", "setting": "[3]; Day 6", "result": "44.34 ± 4.60", "unit": "%"},
      {"measurement": "HGB", "setting": "[3]; Day 6", "result": "15.23 ± 1.70", "unit": "g/dL"},
      {"measurement": "K^+", "setting": "[3]; Day 6", "result": "5.35 ± 0.40", "unit": "mmol/L"},
      {"measurement": "LYM", "setting": "[3]; Day 6", "result": "5.17 ± 1.80 10^9/l"},
      {"measurement": "LYM (%)", "setting": "[3]; Day 6", "result": "76.18 ± 3.50", "unit": "%"},
      {"measurement": "MCH", "setting": "[3]; Day 6", "result": "16.15 ± 0.40", "unit": "pg"},
      {"measurement": "MCHC", "setting": "[3]; Day 6", "result": "34.35 ± 1.30", "unit": "g/dL"},
      {"measurement": "MCV", "setting": "[3]; Day 6", "result": "47.00 ± 2.40", "unit": "fL"},
      {"measurement": "MON", "setting": "[3]; Day 6", "result": "0.33 ± 0.10 10^9/l"},
      {"measurement": "MON (%)", "setting": "[3]; Day 6", "result": "4.85 ± 0.40", "unit": "%"},
      {"measurement": "MPV", "setting": "[3]; Day 6", "result": "7.10 ± 0.60", "unit": "fL"},
      {"measurement": "NA^+", "setting": "[3]; Day 6", "result": "147.00 ± 0.80", "unit": "mmol/L"},
      {"measurement": "PCT", "setting": "[3]; Day 6", "result": "0.31 ± 0.10", "unit": "%"},
      {"measurement": "PDWc", "setting": "[3]; Day 6", "result": "33.08 ± 3.40", "unit": "%"},
      {"measurement": "PHOS", "setting": "[3]; Day 6", "result": "8.13 ± 1.00", "unit": "mg/dL"},
      {"measurement": "PLT", "setting": "[3]; Day 6", "result": "448.50 ± 193.10 10^9/l"},
      {"measurement": "RBC", "setting": "[3]; Day 6", "result": "9.44 ± 1.00 10^12/l"},
      {"measurement": "RDWc", "setting": "[3]; Day 6", "result": "17.40 ± 0.40", "unit": "%"},
      {"measurement": "TBIL", "setting": "[3]; Day 6", "result": "0.43 ± 0.00", "unit": "mg/dL"},
      {"measurement": "TP", "setting": "[3]; Day 6", "result": "5.08 ± 0.20", "unit": "g/dL"},
      {"measurement": "WBC", "setting": "[3]; Day 6", "result": "6.72 ± 2.00 10^9/l"}
    ]}
  ]
}
